The values below come from patent US5304470A, “Process for the enzymatic preparation of protected and unprotected di- and oligopeptides in aqueous solutions” (Forschungszentrum Juelich GmbH, priority 1991, dated 1994).

Text in the series: (§1) The ethyl ester of tyrosine was reacted.
as §1, §1

`CCOC(=O)C(CCCNC(=N)N)NC(=O)C=CC(=O)O` (stereo not drawn) [Mal-Arg-OEt] showed a solubility in water above 1000 mM.

The molecule `CCOC(=O)C(Cc1ccccc1)NC(=O)C=CC(=O)O` (stereo not drawn) [Mal-Phe-OEt] displayed a solubility in water above 700 mM. In turn, `CCOC(=O)[C@H](Cc1c[nH]c2ccccc12)NC(=O)/C=C\C(=O)O` [Mal-Trp-OEt] displayed a solubility in water above 700 mM. The figure for `CCOC(=O)[C@H](Cc1ccc(O)cc1)NC(=O)/C=C\C(=O)O` [Mal-Tyr-OEt] is above 600 mM.
